Results published in patent EP2397149A1 (Hil-Invent Ges.M.B.H., priority 2010, dated 2011).
Read-outs that look alike come from different tables or passages of the source. Starred links: 1 amine or outer side, 2 acyl side, 3 side chain; linkers in the order of their positions; H or OH if unused. Positions of bridges follow the written chain, without caps; N, C: chain ends. Non-standard residues stand in square brackets, D forms with d. Residues, ends and D or L forms follow the SMILES beside them. Chains are numbered I, II in the order given. Actinocin(9to1) = Cc1c2oc3c(C)ccc(C(=O)[*:1])c3nc-2c(C(=O)[*:2])c(N)c1=O; NMeV = CN[C@H](C(=O)O)C(C)C; Sar = CNCC(=O)O

Tests used:
[1] = system: engrafted CLL mice (CD5/CD19 cells); assay: Treatment study 02: reduced actinomycin D concentrations in murine B-CLL model; assay type: in vivo
Description: (§1) The original Eµ-TCL1a transgenic mice which were generously provided by C. Croce (Ohio) have been back-crossed for > 9 generations to C57BL/6 mice. Mice were killed at stated ages, or when signs of illness developed, and samples for histology, flow cytometry, and miRNA isolation were collected. The tumor load in all lymphoid organs was assessed by flow cytometry following staining for the surface markers CD19, CD5, and IgM. Approval from the Austrian Animal Ethics committee was obtained prior to performing the experiments. Engrafted mice were produced by injecting 3 x 10^6 lymphocytes of a leukemic Eµ-TCL1a transgenic mouse into 30 Black 6 mice from Charles River Laboratories, Sulzfeld, Germany.
In example 1 a treatment schedule of 0.06 mg/kg daily for two weeks was used. […] To assess the tumour load blood samples were consecutively taken from the tail vein.

B-CLL cells = assay: IC50 determination (XTT dye, 48 h); assay type: cell-based, human
Description: 1.5 x 10^6 B-CLL cells and 0.4 x 10^6 CEM-C7H2 cells per well were incubated with different concentrations of the respective substance (0,2, 0,5, 1, 2, 5, 10, 20 µM) and incubated for 48 h. After this XTT-dye solution was added as described above and absorption was measured at 450 nm with 655 nm as reference wavelength. Concentrations that led to a 50 % metabolism reduction were monitored as IC50 value.
Finally, the substances were tested for their toxicity in cell lines from different parts of the human body such as liver (HepG2), kidney (HEK-293), lung (SHP-77), skin keratinocytes (WS-1) and in human umbilical vein endothelial cells from 3 different donors. […] For these substances the mean IC50 (48h) in 4 B-CLL cells samples from 4 different donors was determined and the substances were numbered beginning with the lowest IC50 in B-CLL cells.

[2] = system: engrafted B-CLL mice (CD5/CD19 cells)
Description: as §1
First a treatment study included 10 mice.
To assess tumour load development after treatment blood samples were collected from the tail vein (Fig. 4).

[3] = system: colon cancer cell line HCT116; assay: Sensitivity of isogenic HCT116 with or without p53 deletion; assay type: cell-based
[4] = system: engrafted wildtype (C57BL/6) mice (CD5+/CD19+ cells); assay: Treatment study 03: head to head comparison of actinomycin D and fludarabine; assay type: in vivo; conditions: for 50 % survival time after start of treatment / tumour load reduction: actinomycin D 0.06 mg/kg daily for 14 days, fludarabine 34 mg/kg for 5 days; for tumour load reduction: day 22 after treatment start, vs untreated mice
Description: (§2) Viability was measured using flow-cytometry (AnnexinV/7-AAD,-/-). […] The length of the box corresponds to the interquartile range (IQR) and is the difference between the 75th and 25th percentiles. The horizontal line in the box is the median. […] Viability of B-CLL cells was assessed using a flow-cytometer (Annex-inV/7-AAD -/-). The length of the box corresponds to the interquartile range (IQR) and is the difference between the 75th and 25th percentiles. The horizontal line in the box is the median. […] Day zero is the day of engraftment with 3x10^6 lymphocytes derived from TCL1 transgenic mice with overt leukemia. […] Blood samples were collected from the tail vein of the respective animal and whole blood was analysed for CD5/CD19 positive cells using a flow-cytometer. […] Dashed line is 0.04 mg/kg and black line is 0.05 mg/kg daily for two weeks.
as §1
At day 22 after treatment start tumour load was assessed compared to that of the tumour load of untreated mice.

[5] = system: B-CLL cells bearing the chromosomal aberration del(17p)13; assay: Viability / apoptosis of del(17p)13 B-CLL cells (flow cytometry, AnnexinV/7-AAD); assay type: cell-based, human; conditions: for viability reduction: 160 nM
Description: as §2
The supplied substances were solved in 100 µl medium at 37°C 90 min on a rotation shaker and transferred to a 96-well plated. Then 100µl medium containing 1.5 x 10^6 B-CLL cells was added. Final concentration of the substances was 20 µM. After a incubation time of 48 h 50 µl XTT-dye was added and absorption measured as above. […] Only substances that reduced the cell metabolism/dye development > 50 % were counted. The reason for this higher cut off value is the low proliferative activity of B-CLL cells who are mainly in Go arrest. Positive substances were double checked with Annex-inV/7-AAD apoptosis/necrosis staining in CD19+/CD5+ positive cells on a flow cytometer.

[6] = system: B-CLL cells of patients with no p53 aberrations; assay: Influence of the p53 inhibitor pifithrin-alpha on drug susceptibility (flow cytometry, AnnexinV/7-AAD); assay type: cell-based, human
Description: as §2
B-CLL cells of patients with no p53 aberrations were treated with 160 nM actinomycin w or w/o 30 µM pifithrin-alpha.

Cc1c2oc3c(C)ccc(C(=O)N[C@@H]4C(=O)N[C@H](C(C)C)C(=O)N5CCC[C@H]5C(=O)N(C)CC(=O)N(C)[C@@H](C(C)C)C(=O)O[C@@H]4C)c3nc-2c(C(=O)N[C@@H]2C(=O)N[C@H](C(C)C)C(=O)N3CCC[C@H]3C(=O)N(C)CC(=O)N(C)[C@@H](C(C)C)C(=O)O[C@@H]2C)c(N)c1=O [actinomycin D] (I: T[dV]P[Sar][NMeV] / II: T[dV]P[Sar][NMeV]; ester I:1-I:C, II:1-II:C; linker I:N-II:N via Actinocin(9to1))
tumour cells after treatment ([1]; 0.05 mg/kg or 0.04 mg/kg daily for two weeks, two mice each, start 47 days after engraftment): severe reduction of tumour cells
time until tumour load increased to the initial values after the first treatment ([1]; 0.05 or 0.04 mg/kg daily for two weeks, after first treatment): 46 days
time until CD5/CD19 counts increased again after the second treatment ([1]; 0.05 or 0.04 mg/kg daily for two weeks, after retreatment): 44 days
IC50 (B-CLL cells; 4 B-CLL cells samples from 4 different donors, 48 h, in vitro, read-out: mean IC50 (48h)): 80 nM
survival difference to the mock treated animals (Fig. 3) ([2]; 0,06 mg/kg daily for two weeks vs PBS): highly significant
time after the initial therapy until retreatment ([2]; CD5/CD19 counts back at the initial value at day 135): 85 days
CD5/CD19 count after treatment ([2]; treatment at day 50, three surviving animals, tail vein blood): A reduction of the CD5/CD19 count can be observed in all three animals
effect of p53 deletion on actinomycin D susceptibility [3]: no effect
tumour load (CD5+/CD19+ cell count), Fig. 6 ([4]; 22 days after treatment start): highly significant tumour load reduction
50 % survival time after start of treatment [4]: 103 days
tumour load reduction [4]: more than 80%
viability (Fig. 1) ([5]; 20 nM, 48 h, 4 p53 deleted, fludarabine resistant B-CLL patients, p < 0.001): significant viability reduction
apoptosis induced in % of B-CLL cells ([5]; 20 nM, within 48 h, del(17p)13 B-CLL cells (Fig. 1)): > 80%
viability reduction ([5]; del(17p)13 B-CLL samples derived from peripheral blood): > 45%
viability reduction ([5]; one del(17p)13 sample derived from the bone marrow): 38%
apoptosis induction ([5]; 20 µM, three B-CLL samples of patients with del(17p)13): able to induce apoptosis in all three B-CLL cells samples

CN1CC[C@H](c2c(O)cc(O)c3c(=O)cc(-c4ccccc4Cl)oc23)[C@H](O)C1 [flavopiridol]
synergism with pifithrin-alpha ([6]; with or without 30 µM pifithrin-alpha, 48 h, 160 nM actinomycin (text; Fig. 2: 20 nM), 50 nM flavopiridol, 10 µM fludarabine): synergistic with pifithrin-alpha

Nc1nc(F)nc2c1ncn2[C@@H]1O[C@H](CO)[C@@H](O)[C@@H]1O [fludarabine]
IC50 (B-CLL cells; Homo sapiens, B-CLL, read-out: double IC50 determined for fludarabine, printed as the double IC50, unclear whether 3µM is the IC50 or its double): 3000 nM
50 % survival time after start of treatment [4]: 47 days
tumour load reduction [4]: 20%

Cc1ccc(C(=O)Cn2c3c(sc2=N)CCCC3)cc1 [pifithrin-alpha]
effect of pifithrin-alpha alone on viability of CLL cells ([6]; 30 µM, alone): no effect on viability
